Source: US6358491B1, “Somatostatin analogs” (Berlex Laboratories, Inc., priority 1999, dated 2002)
Where two headings read alike, the source gives them in different places.

Assays:
SSTRs, NCI-H69 membranes = assay: [125I]SST-14 binding to NCI-H69 cell membranes (SSTR affinity); set-up: species or system human; details: inhibition of [125I]SST-14 binding, two-site fit
Experimental: [^125I-Tyr^11] somatostatin-14 ([^125I]SST-14) was obtained from Amersham. Unlabeled somatostatin-14 was purchased either from BACHEM (Torrance, Calif.) or from Sigma Chemical Co. (St. Louis, Mo.). Protease inhibitors, leupeptin, aprotinin, bacitracin, and benzamidine and other reagents were obtained from Sigma. Protease inhibitors were prepared in dimethylsulfoxide (DMSO) at a concentration 500×higher than the final assay concentration. The prepared protease solution was stored at −20° C. and diluted with the buffer solution before use.
Membrane preparations used in these studies were prepared from two commercially available tumor cell lines, the human small cell lung cancer cell line, NCI-H69, and the rat pancreatic tumor cell line, AR42J, obtained from American Type Culture Collection (ATCC) (Manassas, Va.). NCI-H69 cells were maintained by serial passage in RPMI 1640 with 10% fetal calf serum. AR42J cells were maintained in F-12K medium containing 20% fetal calf serum. Cells in culture flasks were incubated at 37° C. with 5% CO2 in air atmosphere following the recommendations of the “Product Sheet” from ATCC.
Cultured cells were first detached from plates with phosphate-buffered saline, pH 7.4, containing 2 mM EDTA, and centrifuged at 1,500×g for 10 min. Cells were then resuspended in 5-10 mL of the homogenization buffer (1 mM sodium bicarbonate, pH 7.4, 1 mM EDTA, 1 mM EGTA, 2.5 mM DTT, 5 μg/mL leupeptin, 5 μg/mL aprotinin, 100 μg/mL bacitracin, 100 μg/mL benzamidine) for 10 min on ice. The cells were lysed for 30 sec twice in a polytron with a setting at 5. The lysate was centrifuged at 1,000×g for 10 min at 4° C. The supernatant was centrifuged at 40,000×g for 20 min at 4° C. This step was repeated twice with the homogenization buffer in the absence of protease inhibitors. The pellet was then resuspended at 1-5 mg membrane protein/mL in 25 mM Tris, pH 7.4 without the addition of protease inhibitors and the membranes were stored at −80° C. before use. Membrane protein concentration was determined spectroscopically using the bicinchonic acid (BCA) protein assay kit (Pierce Chemical Inc. (Rockford, Ill.).
All [^125I]SST-14 binding assays were performed in 0.5 mL binding buffer containing 50 mM HEPES, pH 7.5, 10 mM MgCl2, 0.25% BSA (w/v) containing protease inhibitors (same as above) and incubated at 37° C. for 45 minutes. After incubation, samples were kept at 4° C. and rapidly filtered under vacuum through a Whatman GF/B glass fiber filter with a 12-well harvester (Skatron Instruments Inc., Sterling, Va.). The filter was washed for 9 seconds with cold 50 mM HEPES, pH 7.5, 10 mM MgCl2, 0.25% BSA (w/v). Thirty-five […] of [^125I]SST-14 from Amersham was used in each tube. Peptides were solubilized in DMSO and serially diluted with DMSO. Five μL of peptide in DMSO was used to obtain the final concentration. DMSO (5 μL) was added to the tube without the addition of any peptide or unlabeled SST-14, so that each tube contained 1% DMSO. Non-specific binding was defined as the binding of [^125I]SST-14 which was not displaceable with an excess of unlabeled SST-14 at a concentration of 1×10^−6 M. The bound [^125I]SST-14 without or with excess unlabeled SST-14 (1×10^−6 M) was defined as total binding and nonspecific binding, respectively. The difference between total and nonspecific binding was defined as specific binding. The percent inhibition (% Inh) by peptide was expressed as
% Inh=(total binding−total binding in the presence of peptide)/specific binding×100%
Inclusion of protease inhibitors in homogenizing medium as well as assay buffer is essential to maintain the integrity of both [^125I]SST-14 and somatostatin analogs for the receptor binding assay and to obtain optimal specific binding. The highest specific binding was observed when MgCl2 (10 mM) was included. Membranes were finally resuspended in a sodium-free medium and receptor binding assays were performed in the absence of sodium ions. […]

AR42J tumor xenografts = assay: Biodistribution of 99mTc-labeled compounds in nude mice with AR42J tumor xenografts; type: in vivo; details: 99mTc-labeled compound, 90 minutes post-injection; for TUMOR: i.v.; for T:B: tumor to blood ratio; for T:M: tumor to muscle ratio
Experimental: Rat pancreatic AR42J cells (ATCC, Rockville, Md., USA) were grown in Modified Ham's F12K medium (Cat. No. N-3520, Sigma, St. Louis, Mo., USA) containing 20% fetal bovine serum (FCS) (Cat. No. 1224, Lot No. 9702058, Sigma, St. Louis, Mo., USA) under sterile conditions in 95% humidity and 5% CO2. At a density of approximately 10×10^6 cells per T150 flask, the cells were harvested with trypsin and collected by centrifugation at 2400 rpm (800×g) for 15 minutes in a benchtop centrifuge (IEC Centra-8 tabletop centrifuge, International Equipment Company, Needham, Mass., USA). The cells were resuspended in medium containing 20% FCS for implantation.
Six female nude mice (CrlLNU/NU-nuBR, 6-8 weeks old) were injected subcutaneously into the right flank with tumor cells (2×10^7/100 μL) in 20% matrigel (Collaborative Biomedical Products, Chicago, Ill., USA). Fourteen days after inoculation tumors were visible in all animals. Three weeks after inoculation, tumors were aseptically dissected, minced and implanted into 60 nude mice using a trochar. The tumor xenografts from the second passage were used for biodistribution studies.
A dose of approximately 50-100 μCi ^99mTc-labeled compound/mouse was injected intravenously in a total volume of 100 μL. Mice were sacrificed 90 minutes post-injection by decapitation and the trunk blood was collected. Tumors (1 to 3 per mouse), liver, gastrointestinal tract, kidneys, and samples of muscle from both legs (quadriceps femoralis) were collected, weighed, and counted for radioactivity.

[1] = 24 hours post-injection, cited from earlier work
[2] = patient, four cycles of treatment; cited from earlier work
[3] = read-out: IC50 Values for Uncomplexed Compounds, NCI-H69 (first value)
[4] = read-out: IC50 Values for Uncomplexed Compounds, NCI-H69 (second value)

`C[C@@H](O)[C@@H]1NC(=O)[C@H](CCCCN)NC(=O)[C@@H](Cc2c[nH]c3ccccc23)NC(=O)[C@H](Cc2ccc(O)cc2)NC(=O)[C@H](CCSCC(=O)NC[C@H](N)C(=O)N[C@@H](CCCN)C(=O)N[C@@H](CS)C(=O)N[C@H](CO)[C@@H](C)O)N(C)C(=O)[C@H](Cc2ccccc2)NC1=O` [cyclo-Tyr-D-Trp-Lys-Thr-Phe-(N—CH3)Hcy(CH2 CO-β-Dap-Orn-Cys-Thr(ol))] showed an IC50 (SSTRs, NCI-H69 membranes; [3]) of 0.505 nM, an IC50 (SSTRs, NCI-H69 membranes; [4]) of 744 nM and a TUMOR (AR42J tumor xenografts) of 10.3 %ID/g. For the same compound, the “T:B” value (AR42J tumor xenografts) was 24 and the “T:M” value (AR42J tumor xenografts) was 96.

In the case of `C[C@@H](O)[C@@H]1NC(=O)[C@H](CCCCN)NC(=O)[C@@H](Cc2c[nH]c3ccccc23)NC(=O)[C@H](Cc2ccc(O)cc2)NC(=O)[C@H](CCSCC(=O)NCCC[C@H](N)C(=O)NCC(=O)N[C@@H](CS)C(N)=O)N(C)C(=O)[C@H](Cc2ccccc2)NC1=O` [cyclo-Tyr-D-Trp-Lys-Thr-Phe-(N—CH3)Hcy(CH2 CO-δ-Orn-Gly-Cys-NH2)], the TUMOR (AR42J tumor xenografts) is reported as 1.8 %ID/g, the “T:B” value (AR42J tumor xenografts) is reported as 29 and the “T:M” value (AR42J tumor xenografts) is reported as 95.

In the case of `C[C@@H](O)[C@@H]1NC(=O)[C@H](CCCCN)NC(=O)[C@@H](Cc2c[nH]c3ccccc23)NC(=O)[C@H](Cc2ccc(O)cc2)NC(=O)[C@H](CCSCC(=O)NC[C@H](N)C(=O)N[C@@H](CO)C(=O)N[C@@H](CS)C(=O)N[C@H](CO)[C@@H](C)O)N(C)C(=O)[C@H](Cc2ccccc2)NC1=O` [cyclo-Tyr-D-Trp-Lys-Thr-Phe-(N—CH3)Hcy(CH2 CO-β-Dap-Ser-Cys-Thr(ol))], the IC50 (SSTRs, NCI-H69 membranes; [3]) is reported as 1.57 nM, the IC50 (SSTRs, NCI-H69 membranes; [4]) is reported as under 0.001 nM and the TUMOR (AR42J tumor xenografts) is reported as 12.6 %ID/g. For the same compound, the “T:B” value (AR42J tumor xenografts) was 31 and the “T:M” value (AR42J tumor xenografts) was 144.

With `C[C@@H](O)[C@@H]1NC(=O)[C@H](CCCCN)NC(=O)[C@@H](Cc2c[nH]c3ccccc23)NC(=O)[C@H](Cc2ccc(O)cc2)NC(=O)[C@H](CCSCC(=O)NC[C@H](N)C(=O)N[C@@H](Cc2c[nH]cn2)C(=O)N[C@@H](CS)C(=O)N[C@H](CO)[C@@H](C)O)N(C)C(=O)[C@H](Cc2ccccc2)NC1=O` [cyclo-Tyr-D-Trp-Lys-Thr-Phe-(N—CH3)Hcy(CH2 CO-β-Dap-His-Cys-Thr(ol))] the IC50 (SSTRs, NCI-H69 membranes; [3]) was 0.861 nM, the TUMOR (AR42J tumor xenografts) was 15.5 %ID/g and the “T:B” value (AR42J tumor xenografts) was 29. For the same compound, the “T:M” value (AR42J tumor xenografts) was 96.

For `C[C@@H](O)[C@@H]1NC(=O)[C@H](CCCCN)NC(=O)[C@@H](Cc2c[nH]c3ccccc23)NC(=O)[C@H](Cc2ccc(O)cc2)NC(=O)[C@H](CCSCC(=O)NC[C@H](N)C(=O)N[C@@H](CCN)C(=O)N[C@@H](CS)C(=O)NC(CO)CO)N(C)C(=O)[C@H](Cc2ccccc2)NC1=O` [cyclo-Tyr-D-Try-Lys-Thr-Phe-(N—CH3)Hcy(CH2 CO-β-Dap-Dab-Cys-Ser(ol))], the IC50 (SSTRs, NCI-H69 membranes; [3]) was 1.08 nM, the TUMOR (AR42J tumor xenografts) was 10.8 %ID/g and the “T:B” value (AR42J tumor xenografts) was 30. For the same compound, the “T:M” value (AR42J tumor xenografts) was 89.

In the case of ^111In-DOTA-lanreotide, the “retention in human liver” value [1] is listed as “about 3.2 % injected dose”, the retention in kidney ([1]; human) is listed as “about 2.5 % injected dose” and the retention in spleen ([1]; human) is listed as “about 1.2 % injected dose”.

In the case of ^90Y-DOTA-lanreotide, the 90Y kidney doses [2] is listed as 1.98-2.43 mGy/MBq and the spleen doses [2] is listed as 1.68-3.35 mGy/MBq.

With `C[C@@H](O)[C@@H]1NC(=O)[C@H](CCCCN)NC(=O)[C@@H](Cc2c[nH]c3ccccc23)NC(=O)[C@H](Cc2ccc(O)cc2)NC(=O)[C@H](CCSCC(=O)N[C@@H](CO)C(=O)N[C@@H](CO)C(=O)N[C@@H](CS)C(=O)NCCOCCOCCN)N(C)C(=O)[C@H](Cc2ccccc2)NC1=O` [cyclo-Tyr-D-Trp-Lys-Thr-Phe-(N—CH3)Hcy(CH2 CO-Ser-Ser-Cys-NH(CH2 CH2 O)2 CH2 CH2 NH2)] the IC50 (SSTRs, NCI-H69 membranes; [3]) was 0.645 nM, the IC50 (SSTRs, NCI-H69 membranes; [4]) was over 1000 nM and the TUMOR (AR42J tumor xenografts) was 10.6 %ID/g. For the same compound, the “T:B” value (AR42J tumor xenografts) was 44 and the “T:M” value (AR42J tumor xenografts) was 132.

Work on `C[C@@H](O)[C@@H]1NC(=O)[C@H](CCCCN)NC(=O)[C@@H](Cc2c[nH]c3ccccc23)NC(=O)[C@H](Cc2ccc(O)cc2)NC(=O)[C@H](CCSCC(=O)NC[C@H](N)C(=O)N[C@@H](Cc2ccc(N)cc2)C(=O)N[C@@H](CS)C(=O)N[C@H](CO)[C@@H](C)O)N(C)C(=O)[C@H](Cc2ccccc2)NC1=O` [cyclo-Tyr-D-Trp-Lys-Thr-Phe-(N—CH3)Hcy(CH2 CO-β-Dap-Phe(4-NH2)-Cys-Thr(ol))] yielded an IC50 (SSTRs, NCI-H69 membranes; [3]) of 0.501 nM, an IC50 (SSTRs, NCI-H69 membranes; [4]) of under 0.001 nM and a TUMOR (AR42J tumor xenografts) of 31.8 %ID/g. For the same compound, the “T:B” value (AR42J tumor xenografts) was 81 and the “T:M” value (AR42J tumor xenografts) was 188.

With `C[C@@H](O)[C@@H]1NC(=O)[C@H](CCCCN)NC(=O)[C@@H](Cc2c[nH]c3ccccc23)NC(=O)[C@H](Cc2ccc(O)cc2)NC(=O)[C@H](CCSCC(=O)NC[C@H](N)C(=O)N[C@@H](CCCCN)C(=O)N[C@@H](CS)C(=O)N[C@H](CO)[C@@H](C)O)N(C)C(=O)[C@H](Cc2ccccc2)NC1=O` [cyclo-Tyr-D-Trp-Lys-Thr-Phe-(N—CH3)Hcy(CH2 CO-β-Dap-Lys-Cys-Thr(ol))] the IC50 (SSTRs, NCI-H69 membranes; [3]) was 0.346 nM, the IC50 (SSTRs, NCI-H69 membranes; [4]) was 234 nM and the TUMOR (AR42J tumor xenografts) was 10.2 %ID/g. The “T:B” value (AR42J tumor xenografts) was 48 and the “T:M” value (AR42J tumor xenografts) was 104.

In the case of `C[C@@H](O)[C@H](NC(=O)CSCC[C@H]1C(=O)N[C@@H](Cc2ccc(O)cc2)C(=O)N[C@H](Cc2c[nH]c3ccccc23)C(=O)N[C@@H](CCCCN)C(=O)N[C@@H]([C@@H](C)O)C(=O)N[C@@H](Cc2ccccc2)C(=O)N1C)C(=O)NCC(=O)NCC(=O)N[C@@H](CS)C(N)=O` [cyclo-Tyr-D-Trp-Lys-Thr-Phe-(N—CH3)Hcy(CH2 CO-Thr-Gly-Gly-Cys-NH2)], the IC50 (SSTRs, NCI-H69 membranes; [3]) is reported as 1.63 nM, the IC50 (SSTRs, NCI-H69 membranes; [4]) is reported as 24300 nM and the TUMOR (AR42J tumor xenografts) is reported as 3.81 %ID/g. The “T:B” value (AR42J tumor xenografts) was 30 and the “T:M” value (AR42J tumor xenografts) was 95.
